Results reported in ChEMBL document CHEMBL5055685, “Discovery of the First Potent IDO1/IDO2 Dual Inhibitors: A Promising Strategy for Cancer Immunotherapy” (J Med Chem, 2021).
Active and inactive are the calls of the source. The rule behind the calls is not given here.

Columns and labels:
[1] = Half life in Sprague-Dawley rat at 5 mg/kg, iv; assay type: ADME, organism-based; details: in vivo
[2] = Half life in human liver microsomes; assay type: ADME, Microsome
[3] = Half life in monkey liver microsomes; assay type: ADME, Macaca mulatta, Microsome; details: rhesus monkey
[4] = Metabolic stability in dog liver microsomes assessed as rate constant; assay type: ADME, Canis lupus familiaris, Microsome
[5] = Half life in dog liver microsomes assessed as rate constant; assay type: ADME, Canis lupus familiaris, Microsome
HCT-116 = experiment: Antitumor immunity in BALB/c mouse xenografted with human HCT-116 cells assessed as early Treg cells in tumor-draining lymph nodes by propidium iodide staining based flow cytometry analysis (reference value: 7.24 %); assay type: functional
Mus musculus = experiment: In vivo inhibition of TDO in BALB/c mouse xenografted with human HCT-116 cells assessed as suppression of TDO mRNA expression in tumor by quantitative RT-PCR analysis; assay type: functional, organism-based
[6] = molecular target: ALK tyrosine kinase receptor (Homo sapiens) (UniProt Q9UM73); experiment: Inhibition of ALK (unknown origin) at 1 uM
[7] = molecular target: Mitogen-activated protein kinase kinase kinase 5 (Homo sapiens) (UniProt Q99683); experiment: Inhibition of ASK1 (unknown origin) at 1 uM
[8] = molecular target: Calcium/calmodulin-dependent protein kinase type IV (Homo sapiens) (UniProt Q16566); experiment: Inhibition of CAMK4 (unknown origin) at 1 uM
[9] = molecular target: Calcium/calmodulin-dependent protein kinase kinase 1 (Homo sapiens) (UniProt Q8N5S9); experiment: Inhibition of CAMKK1 (unknown origin) at 1 uM
[10] = molecular target: Dual specificity protein kinase CLK2 (Homo sapiens) (UniProt P49760); experiment: Inhibition of CLK2 (unknown origin) at 1 uM
[11] = molecular target: Serine/threonine-protein kinase DCLK2 (Homo sapiens) (UniProt Q8N568); experiment: Inhibition of DCAMKL2 (unknown origin) at 1 uM
Serine/threonine-protein kinase DCLK2 (Homo sapiens), sequence (Q8N568 whole entry): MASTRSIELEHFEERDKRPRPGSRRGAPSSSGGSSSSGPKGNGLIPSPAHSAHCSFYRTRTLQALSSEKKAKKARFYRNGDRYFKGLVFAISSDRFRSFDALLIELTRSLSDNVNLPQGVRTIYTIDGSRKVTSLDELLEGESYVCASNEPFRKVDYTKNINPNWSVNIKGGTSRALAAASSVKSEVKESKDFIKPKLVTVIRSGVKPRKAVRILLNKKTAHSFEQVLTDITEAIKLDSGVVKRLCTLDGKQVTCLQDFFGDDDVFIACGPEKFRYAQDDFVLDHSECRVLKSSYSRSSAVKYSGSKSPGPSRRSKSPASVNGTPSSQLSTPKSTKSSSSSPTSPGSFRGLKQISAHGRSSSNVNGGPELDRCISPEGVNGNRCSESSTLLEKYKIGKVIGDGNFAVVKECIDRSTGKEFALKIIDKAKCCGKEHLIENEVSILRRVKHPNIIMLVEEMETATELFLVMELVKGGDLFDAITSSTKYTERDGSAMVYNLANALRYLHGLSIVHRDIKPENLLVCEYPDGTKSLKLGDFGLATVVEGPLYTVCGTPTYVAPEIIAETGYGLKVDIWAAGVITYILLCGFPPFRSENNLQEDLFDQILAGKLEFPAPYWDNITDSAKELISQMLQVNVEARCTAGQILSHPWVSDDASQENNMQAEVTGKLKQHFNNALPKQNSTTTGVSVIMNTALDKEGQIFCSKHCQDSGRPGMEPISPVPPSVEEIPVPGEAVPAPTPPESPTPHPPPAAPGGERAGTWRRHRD

[12] = molecular target: Serine/threonine-protein kinase MRCK gamma (Homo sapiens) (UniProt Q6DT37); experiment: Inhibition of DMPK2 (unknown origin) at 1 uM
[13] = molecular target: Dual specificity tyrosine-phosphorylation-regulated kinase 4 (Homo sapiens) (UniProt Q9NR20); experiment: Inhibition of DYRK4 (unknown origin) at 1 uM
[14] = molecular target: Ephrin type-A receptor 4 (Homo sapiens) (UniProt P54764); experiment: Inhibition of EPHA4 (unknown origin) at 1 uM
[15] = molecular target: Tyrosine-protein kinase Fer (Homo sapiens) (UniProt P16591); experiment: Inhibition of FER (unknown origin) at 1 uM
[16] = molecular target: G protein-coupled receptor kinase 4 (Homo sapiens) (UniProt P32298); experiment: Inhibition of GRK4 (unknown origin) at 1 uM
[17] = molecular target: Rhodopsin kinase GRK7 (Homo sapiens) (UniProt Q8WTQ7); experiment: Inhibition of GRK7 (unknown origin) at 1 uM
[18] = molecular target: Homeodomain-interacting protein kinase 1 (Homo sapiens) (UniProt Q86Z02); experiment: Inhibition of HIPK1 (unknown origin) at 1 uM
[19] = molecular target: Mitogen-activated protein kinase kinase kinase kinase 1 (Homo sapiens) (UniProt Q92918); experiment: Inhibition of HPK1 (unknown origin) at 1 uM
[20] = molecular target: Inhibitor of nuclear factor kappa-B kinase subunit beta (Homo sapiens) (UniProt O14920); experiment: Inhibition of IKKbeta (unknown origin) at 1 uM
[21] = molecular target: Mitogen-activated protein kinase 9 (Homo sapiens) (UniProt P45984); experiment: Inhibition of JNK2 (unknown origin) at 1 uM
[22] = molecular target: LIM domain kinase 1 (Homo sapiens) (UniProt P53667); experiment: Inhibition of LIMK1 (unknown origin) at 1 uM
[23] = molecular target: Serine/threonine-protein kinase STK11 (Homo sapiens) (UniProt Q15831); experiment: Inhibition of LKB1 (unknown origin) at 1 uM
Serine/threonine-protein kinase STK11 (Homo sapiens), sequence (Q15831 whole entry): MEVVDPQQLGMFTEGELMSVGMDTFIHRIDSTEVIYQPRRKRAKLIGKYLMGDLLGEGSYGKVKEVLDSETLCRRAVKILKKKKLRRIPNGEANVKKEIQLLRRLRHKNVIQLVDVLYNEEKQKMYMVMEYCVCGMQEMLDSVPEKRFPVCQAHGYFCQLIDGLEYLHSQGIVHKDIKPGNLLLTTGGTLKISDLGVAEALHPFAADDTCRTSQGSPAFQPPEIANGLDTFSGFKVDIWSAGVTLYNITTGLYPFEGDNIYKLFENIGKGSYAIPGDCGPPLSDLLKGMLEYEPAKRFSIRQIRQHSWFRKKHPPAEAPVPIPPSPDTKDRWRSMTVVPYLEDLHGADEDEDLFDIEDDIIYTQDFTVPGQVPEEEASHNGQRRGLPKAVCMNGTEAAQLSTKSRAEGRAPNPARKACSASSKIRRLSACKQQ

[24] = molecular target: MAP kinase-activated protein kinase 3 (Homo sapiens) (UniProt Q16644); experiment: Inhibition of MAPKAPK3 (unknown origin) at 1 uM
[25] = molecular target: Misshapen-like kinase 1 (Homo sapiens) (UniProt Q8N4C8); experiment: Inhibition of MINK1 (unknown origin) at 1 uM
[26] = molecular target: Muscle, skeletal receptor tyrosine-protein kinase (Homo sapiens) (UniProt O15146); experiment: Inhibition of MUSK (unknown origin) at 1 uM
Muscle, skeletal receptor tyrosine-protein kinase (Homo sapiens), sequence (O15146 whole entry): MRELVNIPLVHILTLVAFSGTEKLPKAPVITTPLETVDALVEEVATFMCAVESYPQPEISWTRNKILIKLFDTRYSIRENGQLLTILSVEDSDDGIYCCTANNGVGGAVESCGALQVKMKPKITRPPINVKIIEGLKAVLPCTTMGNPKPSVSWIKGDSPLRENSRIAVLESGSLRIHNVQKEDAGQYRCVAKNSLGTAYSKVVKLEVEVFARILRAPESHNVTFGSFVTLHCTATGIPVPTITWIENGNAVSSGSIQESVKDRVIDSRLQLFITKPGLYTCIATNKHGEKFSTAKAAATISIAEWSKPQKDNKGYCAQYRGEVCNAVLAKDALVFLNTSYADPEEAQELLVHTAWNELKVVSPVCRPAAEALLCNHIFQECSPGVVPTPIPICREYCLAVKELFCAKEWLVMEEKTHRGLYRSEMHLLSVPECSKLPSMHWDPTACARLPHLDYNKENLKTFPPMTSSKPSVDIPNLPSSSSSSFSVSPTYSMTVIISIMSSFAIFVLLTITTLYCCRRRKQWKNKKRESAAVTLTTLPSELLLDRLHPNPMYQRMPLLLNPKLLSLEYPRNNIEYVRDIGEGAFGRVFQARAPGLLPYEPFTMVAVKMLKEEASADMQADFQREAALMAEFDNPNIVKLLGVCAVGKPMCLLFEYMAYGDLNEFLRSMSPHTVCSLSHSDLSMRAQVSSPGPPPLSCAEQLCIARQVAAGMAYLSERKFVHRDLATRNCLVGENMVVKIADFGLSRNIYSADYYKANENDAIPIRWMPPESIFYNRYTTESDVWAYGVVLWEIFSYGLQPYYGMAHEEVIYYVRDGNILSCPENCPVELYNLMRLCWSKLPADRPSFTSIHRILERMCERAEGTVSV

[27] = molecular target: Serine/threonine-protein kinase Nek11 (Homo sapiens) (UniProt Q8NG66); experiment: Inhibition of NEK11 (unknown origin) at 1 uM
[28] = molecular target: Serine/threonine-protein kinase Nek3 (Homo sapiens) (UniProt P51956); experiment: Inhibition of NEK3 (unknown origin) at 1 uM
[29] = molecular target: Serine/threonine-protein kinase Nek6 (Homo sapiens) (UniProt Q9HC98); experiment: Inhibition of NEK6 (unknown origin) at 1 uM
[30] = molecular target: Serine/threonine-protein kinase Nek7 (Homo sapiens) (UniProt Q8TDX7); experiment: Inhibition of NEK7 (unknown origin) at 1 uM
[31] = molecular target: Serine/threonine-protein kinase pim-1 (Homo sapiens) (UniProt P11309); experiment: Inhibition of PIM1 (unknown origin) at 1 uM
[32] = molecular target: cAMP-dependent protein kinase catalytic subunit beta (Homo sapiens) (UniProt P22694); experiment: Inhibition of PKAcb (unknown origin) at 1 uM
[33] = molecular target: Protein kinase C iota type (Homo sapiens) (UniProt P41743); experiment: Inhibition of PKCiota (unknown origin)at 1 uM
[34] = molecular target: Serine/threonine-protein kinase D1 (Homo sapiens) (UniProt Q15139); experiment: Inhibition of PKCmu (unknown origin) at 1 uM
[35] = molecular target: Serine/threonine-protein kinase PLK1 (Homo sapiens) (UniProt P53350); experiment: Inhibition of PLK1 (unknown origin) at 1 uM
Serine/threonine-protein kinase PLK1 (Homo sapiens), sequence (P53350 whole entry): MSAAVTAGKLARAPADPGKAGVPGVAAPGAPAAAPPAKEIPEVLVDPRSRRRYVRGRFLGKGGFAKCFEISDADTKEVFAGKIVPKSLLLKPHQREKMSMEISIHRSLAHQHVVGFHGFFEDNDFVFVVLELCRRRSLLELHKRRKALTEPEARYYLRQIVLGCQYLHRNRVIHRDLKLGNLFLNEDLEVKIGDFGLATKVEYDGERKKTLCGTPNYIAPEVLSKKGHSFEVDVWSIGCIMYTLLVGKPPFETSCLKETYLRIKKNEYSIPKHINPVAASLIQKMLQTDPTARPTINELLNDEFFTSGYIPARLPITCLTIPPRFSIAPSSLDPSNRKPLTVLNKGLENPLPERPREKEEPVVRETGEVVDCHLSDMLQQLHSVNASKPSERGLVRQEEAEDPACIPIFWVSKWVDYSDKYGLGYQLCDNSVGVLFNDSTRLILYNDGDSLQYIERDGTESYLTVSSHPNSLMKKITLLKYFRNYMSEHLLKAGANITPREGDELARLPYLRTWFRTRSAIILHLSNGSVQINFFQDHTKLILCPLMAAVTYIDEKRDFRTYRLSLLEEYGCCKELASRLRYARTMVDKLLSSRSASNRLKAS

[36] = molecular target: cAMP-dependent protein kinase catalytic subunit PRKX (Homo sapiens) (UniProt P51817); experiment: Inhibition of PRKX (unknown origin) at 1 uM
[37] = molecular target: Proto-oncogene tyrosine-protein kinase ROS (Homo sapiens) (UniProt P08922); experiment: Inhibition of ROS (unknown origin) at 1 uM
[38] = molecular target: Serine/threonine-protein kinase SIK3 (Homo sapiens) (UniProt Q9Y2K2); experiment: Inhibition of SIK3 (unknown origin) at 1 uM
Serine/threonine-protein kinase SIK3 (Homo sapiens), sequence (Q9Y2K2 whole entry, looked up): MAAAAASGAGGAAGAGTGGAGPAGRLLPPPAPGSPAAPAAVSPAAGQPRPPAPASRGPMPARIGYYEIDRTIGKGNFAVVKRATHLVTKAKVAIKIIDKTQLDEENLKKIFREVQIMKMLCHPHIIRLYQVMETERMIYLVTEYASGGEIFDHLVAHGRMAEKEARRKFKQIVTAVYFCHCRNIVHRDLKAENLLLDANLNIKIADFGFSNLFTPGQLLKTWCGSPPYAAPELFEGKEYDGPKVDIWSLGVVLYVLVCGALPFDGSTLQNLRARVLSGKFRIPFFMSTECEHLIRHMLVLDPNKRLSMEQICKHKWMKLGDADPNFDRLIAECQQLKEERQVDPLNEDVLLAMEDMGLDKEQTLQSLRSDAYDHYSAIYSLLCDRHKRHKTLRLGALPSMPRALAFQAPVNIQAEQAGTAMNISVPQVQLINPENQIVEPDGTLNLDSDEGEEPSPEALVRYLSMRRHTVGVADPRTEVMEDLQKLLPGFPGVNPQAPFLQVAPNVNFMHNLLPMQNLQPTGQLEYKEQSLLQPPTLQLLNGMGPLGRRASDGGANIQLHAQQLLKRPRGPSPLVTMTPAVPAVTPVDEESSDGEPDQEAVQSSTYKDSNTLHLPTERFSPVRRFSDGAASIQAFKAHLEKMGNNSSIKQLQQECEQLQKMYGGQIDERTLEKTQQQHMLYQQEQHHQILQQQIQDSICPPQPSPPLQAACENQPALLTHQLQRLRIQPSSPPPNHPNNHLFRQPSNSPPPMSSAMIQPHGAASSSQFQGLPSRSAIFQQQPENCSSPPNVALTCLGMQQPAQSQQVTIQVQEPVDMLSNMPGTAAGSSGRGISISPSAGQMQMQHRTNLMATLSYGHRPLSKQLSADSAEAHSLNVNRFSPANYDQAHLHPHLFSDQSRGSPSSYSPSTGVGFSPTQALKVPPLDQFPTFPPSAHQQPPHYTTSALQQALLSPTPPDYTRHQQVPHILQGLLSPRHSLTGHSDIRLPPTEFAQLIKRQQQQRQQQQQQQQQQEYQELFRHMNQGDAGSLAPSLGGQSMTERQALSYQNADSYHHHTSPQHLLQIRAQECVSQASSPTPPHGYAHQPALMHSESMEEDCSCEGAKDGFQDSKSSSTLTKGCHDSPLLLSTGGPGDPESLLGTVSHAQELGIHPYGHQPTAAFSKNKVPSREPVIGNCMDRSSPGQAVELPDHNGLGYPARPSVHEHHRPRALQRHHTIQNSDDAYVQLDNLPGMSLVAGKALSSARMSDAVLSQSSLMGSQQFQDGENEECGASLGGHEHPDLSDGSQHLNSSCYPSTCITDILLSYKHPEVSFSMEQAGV

[39] = molecular target: Tyrosine-protein kinase Srms (Homo sapiens) (UniProt Q9H3Y6); experiment: Inhibition of SRMS (unknown origin) at 1 uM
Tyrosine-protein kinase Srms (Homo sapiens), sequence (Q9H3Y6 whole entry): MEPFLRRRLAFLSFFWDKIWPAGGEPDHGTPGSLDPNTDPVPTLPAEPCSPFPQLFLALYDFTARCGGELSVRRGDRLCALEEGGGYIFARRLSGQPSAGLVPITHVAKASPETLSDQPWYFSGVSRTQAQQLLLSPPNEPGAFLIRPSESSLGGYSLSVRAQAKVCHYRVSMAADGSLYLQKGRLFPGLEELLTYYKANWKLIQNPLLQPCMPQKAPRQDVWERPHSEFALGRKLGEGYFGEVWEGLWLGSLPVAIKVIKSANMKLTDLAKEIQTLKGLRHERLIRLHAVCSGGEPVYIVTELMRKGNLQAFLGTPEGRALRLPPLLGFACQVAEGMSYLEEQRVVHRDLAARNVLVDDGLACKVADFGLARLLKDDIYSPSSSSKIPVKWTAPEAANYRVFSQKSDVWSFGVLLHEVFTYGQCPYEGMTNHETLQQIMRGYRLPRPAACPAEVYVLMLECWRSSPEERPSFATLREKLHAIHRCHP

[40] = molecular target: Serine/threonine-protein kinase 25 (Homo sapiens) (UniProt O00506); experiment: Inhibition of STK25 (unknown origin) at 1 uM
[41] = molecular target: Serine/threonine-protein kinase 32C (Homo sapiens) (UniProt Q86UX6); experiment: Inhibition of STK32C (unknown origin) at 1 uM
[42] = molecular target: Serine/threonine-protein kinase 38 (Homo sapiens) (UniProt Q15208); experiment: Inhibition of STK38 (unknown origin) at 1 uM
Serine/threonine-protein kinase 38 (Homo sapiens), sequence (Q15208 2-465 limits assumed): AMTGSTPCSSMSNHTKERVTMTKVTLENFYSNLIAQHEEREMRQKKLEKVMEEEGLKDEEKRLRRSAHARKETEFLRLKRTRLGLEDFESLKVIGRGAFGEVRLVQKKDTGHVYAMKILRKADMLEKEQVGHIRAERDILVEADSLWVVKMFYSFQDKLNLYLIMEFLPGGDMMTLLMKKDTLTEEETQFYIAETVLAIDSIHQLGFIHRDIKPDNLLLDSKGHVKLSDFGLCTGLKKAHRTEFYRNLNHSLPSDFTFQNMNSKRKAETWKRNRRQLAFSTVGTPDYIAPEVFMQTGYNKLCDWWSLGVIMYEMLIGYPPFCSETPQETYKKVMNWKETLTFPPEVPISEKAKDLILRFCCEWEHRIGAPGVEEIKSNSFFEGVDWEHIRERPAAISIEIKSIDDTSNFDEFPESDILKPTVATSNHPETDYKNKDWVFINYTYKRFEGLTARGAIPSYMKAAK

[43] = molecular target: Leukocyte tyrosine kinase receptor (Homo sapiens) (UniProt P29376); experiment: Inhibition of TYK1 (unknown origin) at 1 uM
[44] = molecular target: Serine/threonine-protein kinase WNK1 (Homo sapiens) (UniProt Q9H4A3); experiment: Inhibition of WNK1 (unknown origin) at 1 uM

Question: What does the source list for `OCCOCc1cn(CCNc2nonc2/C(=N/O)Nc2ccc(F)c(Br)c2)nn1`?
Answer: half-life [1]: 36.6 min; half-life [2]: 46.1 min; half-life [3]: 38.6 min; k el [4]: 0.00205 s⁻¹; half-life [5]: 5.66 min; Activity (HCT-116): 3.84%; inhibition (Mus musculus): inactive; inhibition [6]: inactive; inhibition [7]: inactive; inhibition [8]: inactive; inhibition [9]: inactive; inhibition [10]: inactive; inhibition [11]: inactive; inhibition [12]: inactive; inhibition [13]: inactive; inhibition [14]: inactive; inhibition [15]: inactive; inhibition [16]: inactive; inhibition [17]: inactive; inhibition [18]: inactive; inhibition [19]: inactive; inhibition [20]: inactive; inhibition [21]: inactive; inhibition [22]: inactive; inhibition [23]: inactive; inhibition [24]: inactive; inhibition [25]: inactive; inhibition [26]: inactive; inhibition [27]: inactive; inhibition [28]: inactive; inhibition [29]: inactive; inhibition [30]: inactive; inhibition [31]: inactive; inhibition [32]: inactive; inhibition [33]: inactive; inhibition [34]: inactive; inhibition [35]: inactive; inhibition [36]: inactive; inhibition [37]: inactive; inhibition [38]: inactive; inhibition [39]: inactive; inhibition [40]: inactive; inhibition [41]: inactive; inhibition [42]: inactive; inhibition [43]: inactive; inhibition [44]: inactive
